Measured values: patent US10662164B2, “Non-beta lactam antibiotics” (University of Notre Dame du Lac, priority 2014, dated 2020)
≈ marks a conversion by molar mass, not a printed value. Read-outs that look alike come from different tables or passages of the source.

Experiments:
Assay in all cases: MIC determination
[1] = system: E. faecalis 99 (Van R); type: cell-based; conditions: Enterococcus faecalis; vancomycin-resistant clinical isolate; Tables 1 and 5
Source text: (§1) The ESKAPE organisms (E. faecium NCTC (ATCC 19734), S. aureus ATCC 29213, K. pneumonia ATCC 700603, A. baumannii ATCC 17961, P. aeruginosa ATCC 17853, E. aerogenes ATCC 35029) and E. coli ATCC 25922) in the initial screen, S. aureus ATCC 27660, S. epidermis ATCC 35547, S. haemolyticus ATCC 29970, S. oralis ATCC 9811, S. pyogenes ATCC 49399, B. cereus ATCC 13061, B. licheniformis ATCC 12759, and E. faecalis ATCC 29212 were purchased from the American Type Culture Collection (Manassas, Va., USA). S. aureus strains NRS100, NRS119, NRS120, VRS1, and VRS2 were obtained from the Network on Antimicrobial Resistance in Staphylococcus aureus (Chantilly, Va., USA). E. faecalis strains 201 and 99, and E. faecium strains 119-39A and 106 were collected from Wayne State University School of Medicine.
(§2) The procedure for MIC determination was the same as previously reported (Tran et al., Am. J. Clin. Dermatol. 2015; doi 10.1007/S40257-015-0125-9).

[2] = system: E. faecalis 201 (Van S); type: cell-based; conditions: Enterococcus faecalis; vancomycin-susceptible clinical isolate; Tables 1 and 5; read-out: MIC
Source text: as §1, §2

[3] = system: E. faecium 106 (Van R); type: cell-based; conditions: Enterococcus faecium; vancomycin-resistant clinical isolate; Tables 1 and 5; read-out: MIC
Source text: as §1, §2

[4] = system: B. cereus ATCC 13061; type: cell-based; conditions: Bacillus cereus, ATCC13061; Tables 1 and 5; read-out: MIC
Source text: as §1, §2

[5] = system: S. aureus NRS119; type: cell-based; conditions: Staphylococcus aureus, mecA positive, linezolid-resistant, Tables 1 and 5, read-out: MIC
Source text: as §1, §2

[6] = system: S. haemolyticus ATCC 29970; type: cell-based; conditions: Staphylococcus haemolyticus, ATCC29970; Tables 1 and 5; read-out: MIC
Source text: as §1, §2

[7] = system: S. aureus ATCC 27660; type: cell-based; conditions: Staphylococcus aureus, ATCC27660; mecA positive, resistant to methicillin, oxacillin, tetracycline; Tables 1 and 5; read-out: MIC
Source text: as §1, §2

[8] = system: S. aureus NRS100 (COL); type: cell-based; conditions: Staphylococcus aureus, mecA positive, resistant to methicillin, oxacillin, tetracycline, Tables 1 and 5, read-out: MIC
Source text: as §1, §2

[9] = system: S. aureus VRS2; type: cell-based; conditions: Staphylococcus aureus; vancomycin-resistant MRSA (vanA) isolate from Pennsylvania; Tables 1 and 5; read-out: MIC
Source text: as §1, §2

[10] = system: B. licheniformis ATCC 12759; type: cell-based; conditions: Bacillus licheniformis, ATCC12759; Tables 1 and 5; read-out: MIC
Source text: as §1, §2

[11] = system: E. faecalis ATCC 29212; type: cell-based; conditions: Enterococcus faecalis, ATCC29212; quality-control strain; Tables 1 and 5; read-out: MIC
Source text: as §1, §2

[12] = system: S. epidermis ATCC 35547; type: cell-based; conditions: Tables 1 and 5; read-out: MIC
Source text: as §1, §2

[13] = system: S. aureus NRS120; type: cell-based; conditions: Staphylococcus aureus, mecA positive, linezolid-resistant, Tables 1 and 5, read-out: MIC
Source text: as §1, §2

[14] = system: E. faecium 119-39A (Van S); type: cell-based; conditions: Enterococcus faecium; vancomycin-susceptible clinical isolate; Tables 1 and 5; read-out: MIC
Source text: as §1, §2

[15] = system: S. aureus VRS1; type: cell-based; conditions: Staphylococcus aureus; vancomycin-resistant MRSA (vanA) isolate from Michigan; Tables 1 and 5; read-out: MIC
Source text: as §1, §2

[16] = system: S. aureus ATCC 29213; type: cell-based, Staphylococcus aureus; conditions: for MIC: Staphylococcus aureus, read-out: MIC
[17] = system: E. faecium C68; type: cell-based; conditions: Enterococcus faecium, vancomycin-resistant clinical strain from Cleveland hospitals, Table 5
Source text: as §2

[18] = ATCC29213, S. aureus ATCC29213, second numbering, compounds of Scheme 6
[19] = ATCC29213, quality-control, methicillin-susceptible strain, Tables 1 and 5

MIC [1] | MIC [2] | MIC [3] | MIC [4] | MIC [5] | MIC [7] | MIC [8] | MIC [9] | MIC [10] | MIC [11] | MIC [12] | MIC [13] | MIC [14] | MIC [15] | MIC [16, 18] | MIC [16, 19] | MIC [17] | SMILES | MIC [6] | antibacterial activity in words (SAR, C/D ring derivatives) ([16]; S. aureus ATCC29213, second numbering, compounds of Scheme 6)
16 µg/mL (≈ 46.2 µM) | 8 µg/mL (≈ 23.1 µM) | 8 µg/mL (≈ 23.1 µM) | 8 µg/mL (≈ 23.1 µM) | 8 µg/mL (≈ 23.1 µM) | 16 µg/mL (≈ 46.2 µM) | 16 µg/mL (≈ 46.2 µM) | 8 µg/mL (≈ 23.1 µM) | 16 µg/mL (≈ 46.2 µM) | 8 µg/mL (≈ 23.1 µM) | 16 µg/mL (≈ 46.2 µM) | 8 µg/mL (≈ 23.1 µM) | 8 µg/mL (≈ 23.1 µM) | 8 µg/mL (≈ 23.1 µM) | 2 µg/mL (≈ 5.77 µM) | 2 µg/mL (≈ 5.77 µM) | 8 µg/mL (≈ 23.1 µM) | Oc1ccc(-c2nc(-c3ccc(Oc4ccccc4)c(O)c3)no2)cc1 [Compound 51a, 5-(5-(4-hydroxyphenyl)-1,2,4-oxadiazol-3-yl)-2-phenoxyphenol] | 8 µg/mL (≈ 23.1 µM) | 
4 µg/mL (≈ 11 µM) | 4 µg/mL (≈ 11 µM) | 4 µg/mL (≈ 11 µM) | 4 µg/mL (≈ 11 µM) | 4 µg/mL (≈ 11 µM) | 8 µg/mL (≈ 21.9 µM) | 8 µg/mL (≈ 21.9 µM) | 2 µg/mL (≈ 5.48 µM) | 2 µg/mL (≈ 5.48 µM) | 4 µg/mL (≈ 11 µM) | 4 µg/mL (≈ 11 µM) | 4 µg/mL (≈ 11 µM) | 4 µg/mL (≈ 11 µM) | 2 µg/mL (≈ 5.48 µM) | 2 µg/mL (≈ 5.48 µM) | 2 µg/mL (≈ 5.48 µM) | 4 µg/mL (≈ 11 µM) | Oc1ccc(-c2nc(-c3ccc(Oc4ccccc4)cc3Cl)no2)cc1 [Compound 52a, 4-(3-(2-chloro-4-phenoxyphenyl)-1,2,4-oxadiazol-5-yl)phenol] | 4 µg/mL (≈ 11 µM) | 
4 µg/mL (≈ 10.8 µM) | 4 µg/mL (≈ 10.8 µM) | 4 µg/mL (≈ 10.8 µM) | 4 µg/mL (≈ 10.8 µM) | 4 µg/mL (≈ 10.8 µM) | 4 µg/mL (≈ 10.8 µM) | 4 µg/mL (≈ 10.8 µM) | 2 µg/mL (≈ 5.39 µM) | 4 µg/mL (≈ 10.8 µM) | 2 µg/mL (≈ 5.39 µM) | 2 µg/mL (≈ 5.39 µM) | 4 µg/mL (≈ 10.8 µM) | 4 µg/mL (≈ 10.8 µM) | 2 µg/mL (≈ 5.39 µM) |  | 2 µg/mL (≈ 5.39 µM) | 4 µg/mL (≈ 10.8 µM) | [N-]=[N+]=Nc1cc(-c2noc(-c3ccc(O)cc3)n2)ccc1Oc1ccccc1 [Compound 53a, 4-(3-(3-azido-4-phenoxyphenyl)-1,2,4-oxadiazol-5-yl)phenol] | 2 µg/mL (≈ 5.39 µM) | demonstrated activity
